According to patent US9561231B2 (AbbVie Inc., priority 2012, dated 2017):

Legend:
[1] = biological target: T1, first (BD1: amino acids K57-E168) bromodomain of BRD4 (Homo sapiens, UniProt O60885); assay: TR-FRET bromodomain binding assay, BRD4 BD1; settings: TR-FRET assay protocol (A-G, compound concentration range); Ki calculated from IC50, probe Kd and probe concentration; read-out: TR-FRET Binding Ki: BRD4 (BDI_K57-E168)
T1 construct: His-tagged first (BD1: amino acids K57-E168)
Procedure: (§1) A time-resolved fluorescence resonance energy transfer (TR-FRET) assay was used to determine the affinities of compounds of the Examples listed in Table 1 for each bromodomain of BRD4. His-tagged first (BD1: amino acids K57-E168) and second (BD2: amino acids E352-E168) bromodomains of BRD4 were expressed and purified. An Alexa647-labeled BET-inhibitor was used as the fluorescent probe in the assay.
(§2) Compound dilution series were prepared in DMSO via an approximately 3-fold serial dilution from one of the following:
(§3) or 5-fold serial dilution from one of the following:
(§4) Assay method A: 2.5 mM-800 nM
(§5) For Assay methods A, C, D, and F: Compounds were then diluted 6:100 in assay buffer (20 mM Sodium Phosphate, pH 6.0, 50 mM NaCl, 1 mM Ethylenediaminetetraacetic acid, 0.01% Triton X-100, 1 mM DL-Dithiothreitol) to yield 3× working solutions. […] of this solution were added to the assay plate to reach a final volume of 18 μL.
(§6) TR-FRET data were normalized to the means of 24 no-compound controls (“high”) and 8 controls containing 1 μM un-labeled probe (“low”). Percent inhibition was plotted as a function of compound concentration and the data were fit with the 4 parameter logistic equation to obtain IC50s. Inhibition constants (Ki) were calculated from the IC50s, probe Kd and probe concentration. Typical Z′ values were between 0.65 and 0.75.

[2] = biological target: T2, second (BD2: amino acids E352-E168) bromodomain of BRD4 (Homo sapiens, UniProt O60885); assay: TR-FRET bromodomain binding assay, BRD4 BD2; settings: TR-FRET assay protocol (A-G, compound concentration range); Ki calculated from IC50, probe Kd and probe concentration; read-out: TR-FRET Binding Ki: BRD4 (BDII_E352-M457)
T2 construct: protocol
Procedure: as §1, §2, §3, §4, §5, §6

Row | SMILES | Ki [1] | Ki [2]
1 | CNC(=O)c1cncc(-c2cc(=O)n(C)nc2-c2ccccc2Oc2ccccc2)c1 [Example 122, N-methyl-5-[1-methyl-6-oxo-3-(2-phenoxyphenyl)-1,6-dihydropyridazin-4-yl]pyridine-3-carboxamide] | 8.56 µM | 4.52 µM
2 | CC(C)Oc1ccc(-c2cc(=O)n(C)nc2-c2ccccc2Oc2ccccc2)cn1 [Example 123, 2-methyl-6-(2-phenoxyphenyl)-5-[6-(propan-2-yloxy)pyridin-3-yl]pyridazin-3(2H)-one] | 7.26 µM | 1.17 µM
3 | CC(=O)c1cccc(-c2cc(=O)n(C)nc2-c2ccccc2Oc2ccccc2)c1F [Example 124, 5-(3-acetyl-2-fluorophenyl)-2-methyl-6-(2-phenoxyphenyl)pyridazin-3(2H)-one] | 8.12 µM | 17.7 µM
4 | COc1ccc(-c2cc(=O)n(C)nc2-c2ccccc2Oc2ccccc2)c(OC)n1 [Example 125, 5-(2,6-dimethoxypyridin-3-yl)-2-methyl-6-(2-phenoxyphenyl)pyridazin-3(2H)-one] | > 13 µM | 16 µM
5 | COC(=O)c1ccccc1-c1cc(=O)n(C)nc1-c1ccccc1Oc1ccccc1 [Example 126, methyl 2-[1-methyl-6-oxo-3-(2-phenoxyphenyl)-1,6-dihydropyridazin-4-yl]benzoate] | 9.34 µM | > 22.2 µM
6 | CC(C)Oc1ncccc1-c1cc(=O)n(C)nc1-c1ccccc1Oc1ccccc1 [Example 130, 2-methyl-6-(2-phenoxyphenyl)-5-[2-(propan-2-yloxy)pyridin-3-yl]pyridazin-3(2H)-one] | > 13 µM | 17.1 µM
7 | Cn1nc(-c2ccccc2Oc2ccccc2)c(-c2ccc3scnc3c2)cc1=O [Example 131, 5-(1,3-benzothiazol-5-yl)-2-methyl-6-(2-phenoxyphenyl)pyridazin-3(2H)-one] | 6.39 µM | 0.41 µM
8 | CC(=O)c1ccc(F)c(-c2cc(=O)n(C)nc2-c2ccccc2Oc2ccccc2)c1 [Example 132, 5-(5-acetyl-2-fluorophenyl)-2-methyl-6-(2-phenoxyphenyl)pyridazin-3(2H)-one] | > 13 µM | 8.05 µM
9 | COC(C)c1cccc(-c2cc(=O)n(C)nc2-c2ccccc2Oc2ccccc2)c1 (stereo not shown) [Example 134, 5-[3-(1-methoxyethyl)phenyl]-2-methyl-6-(2-phenoxyphenyl)pyridazin-3(2H)-one] | 4.32 µM | 4.06 µM
10 | CCOc1cccc(-c2cc(=O)n(C)nc2-c2ccccc2Oc2ccccc2)c1F [Example 136, 5-(3-ethoxy-2-fluorophenyl)-2-methyl-6-(2-phenoxyphenyl)pyridazin-3(2H)-one] | 4.33 µM | 6.7 µM
11 | Cn1nc(-c2ccccc2Oc2ccccc2)c(-c2ccc3nsnc3c2)cc1=O [Example 137, 5-(2,1,3-benzothiadiazol-5-yl)-2-methyl-6-(2-phenoxyphenyl)pyridazin-3(2H)-one] | 3.26 µM | 1.17 µM
12 | Cn1nc(-c2ccccc2Oc2ccccc2)c(-c2cncc(NCc3ccccc3)c2)cc1=O [Example 138, 5-[5-(benzylamino)pyridin-3-yl]-2-methyl-6-(2-phenoxyphenyl)pyridazin-3(2H)-one] | 7.43 µM | 3.18 µM
13 | Cn1nc(-c2ccccc2Oc2ccccc2)c(-c2cccc(N3CCOCC3)c2)cc1=O [Example 139, 2-methyl-5-[3-(morpholin-4-yl)phenyl]-6-(2-phenoxyphenyl)pyridazin-3(2H)-one] | > 1.52 µM | 0.879 µM
14 | Cn1nc(-c2ccccc2Oc2ccccc2)c(-c2ccc(OCC(F)(F)F)nc2)cc1=O [Example 140, 2-methyl-6-(2-phenoxyphenyl)-5-[6-(2,2,2-trifluoroethoxy)pyridin-3-yl]pyridazin-3(2H)-one] | > 13 µM | 8.21 µM
15 | Cn1nc(-c2ccccc2Oc2ccccc2)c(-c2cncc(C(=O)NC3CC3)c2)cc1=O [Example 144, N-cyclopropyl-5-[1-methyl-6-oxo-3-(2-phenoxyphenyl)-1,6-dihydropyridazin-4-yl]pyridine-3-carboxamide] | > 2.38 µM | > 3.37 µM
16 | Cn1nc(-c2ccccc2Oc2ccccc2)c(-c2cncc(C(=O)NC3CCCC3)c2)cc1=O [Example 145, N-cyclopentyl-5-[1-methyl-6-oxo-3-(2-phenoxyphenyl)-1,6-dihydropyridazin-4-yl]pyridine-3-carboxamide] | > 13 µM | 10.2 µM
17 | CCN(CC)S(=O)(=O)c1cccc(-c2cc(=O)n(C)nc2-c2ccccc2Oc2ccccc2)c1 [Example 146, N,N-diethyl-3-[1-methyl-6-oxo-3-(2-phenoxyphenyl)-1,6-dihydropyridazin-4-yl]benzenesulfonamide] | > 13 µM | 12.2 µM

Results, then the compound that gave them:

Row | Ki [1] | Ki [2] | SMILES
18 | 1.12 µM | 2.96 µM | CC(=O)Nc1cncc(-c2cc(=O)n(C)nc2-c2ccccc2Oc2ccccc2)c1 [Example 121, N-{5-[1-methyl-6-oxo-3-(2-phenoxyphenyl)-1,6-dihydropyridazin-4-yl]pyridin-3-yl}acetamide]
19 | 1.64 µM | 0.376 µM | CNC(=O)c1cccc(-c2cc(=O)n(C)nc2-c2ccccc2Oc2ccccc2)c1 [Example 128, N-methyl-3-[1-methyl-6-oxo-3-(2-phenoxyphenyl)-1,6-dihydropyridazin-4-yl]benzamide]
20 | 0.52 µM | 0.264 µM | CC(C)CCn1cc(-c2cc(=O)n(C)nc2-c2ccccc2Oc2ccccc2)cn1 [Example 129, 2-methyl-5-[1-(3-methylbutyl)-1H-pyrazol-4-yl]-6-(2-phenoxyphenyl)pyridazin-3(2H)-one]
21 | 0.782 µM | 0.159 µM | Cn1nc(-c2ccccc2Oc2ccccc2)c(-c2ccc3c(c2)OCCO3)cc1=O [Example 133, 5-(2,3-dihydro-1,4-benzodioxin-6-yl)-2-methyl-6-(2-phenoxyphenyl)pyridazin-3(2H)-one]
22 | 0.604 µM | 0.411 µM | COC(C)c1ccc(-c2cc(=O)n(C)nc2-c2ccccc2Oc2ccccc2)cc1 (stereo not shown) [Example 135, 5-[4-(1-methoxyethyl)phenyl]-2-methyl-6-(2-phenoxyphenyl)pyridazin-3(2H)-one]
23 | 0.526 µM | 0.297 µM | Cn1nc(-c2ccccc2Oc2ccccc2)c(-c2cccc(CN3CCOCC3)c2)cc1=O [Example 141, 2-methyl-5-[3-(morpholin-4-ylmethyl)phenyl]-6-(2-phenoxyphenyl)pyridazin-3(2H)-one]
24 | 2.4 µM | 1.73 µM | Cn1nc(-c2ccccc2Oc2ccccc2)c(-c2cccc(C(=O)N3CCSCC3)c2)cc1=O [Example 142, 2-methyl-6-(2-phenoxyphenyl)-5-[3-(thiomorpholin-4-ylcarbonyl)phenyl]pyridazin-3(2H)-one]
25 | 3.2 µM | 5.47 µM | Cn1nc(-c2ccccc2Oc2ccccc2)c(-c2cncc(NC3CCCC3)c2)cc1=O [Example 143, 5-[5-(cyclopentylamino)pyridin-3-yl]-2-methyl-6-(2-phenoxyphenyl)pyridazin-3(2H)-one]
26 | 0.26 µM | 0.168 µM | Cn1nc(-c2ccccc2Oc2ccccc2)c(-c2ccc(C(=O)N3CCOCC3)cc2)cc1=O [Example 147, 2-methyl-5-[4-(morpholin-4-ylcarbonyl)phenyl]-6-(2-phenoxyphenyl)pyridazin-3(2H)-one]
